The values below come from patent US20030055065A1, “Tricyclic amide and urea compounds useful for inhibition of G-protein function and for treatment of proliferative diseases” (priority 1993, published 2003).

Each structure is given as a SMILES string. Where “and” joins values, the source holds several entries; their conditions need not be identical. Identical values can stand only once. Like-named read-outs stand apart in the source and are kept apart here.

For the assay, the target named is T1, farnesyl protein transferase (FPT), partially purified from rat brain (Rattus norvegicus, UniProt Q02293+Q04631).
T1 construct: were partially purified from rat brain by ammonium sulfate fractionation followed by Q-Sepharose
T1 sequence (Q02293 whole entry, one chain of several): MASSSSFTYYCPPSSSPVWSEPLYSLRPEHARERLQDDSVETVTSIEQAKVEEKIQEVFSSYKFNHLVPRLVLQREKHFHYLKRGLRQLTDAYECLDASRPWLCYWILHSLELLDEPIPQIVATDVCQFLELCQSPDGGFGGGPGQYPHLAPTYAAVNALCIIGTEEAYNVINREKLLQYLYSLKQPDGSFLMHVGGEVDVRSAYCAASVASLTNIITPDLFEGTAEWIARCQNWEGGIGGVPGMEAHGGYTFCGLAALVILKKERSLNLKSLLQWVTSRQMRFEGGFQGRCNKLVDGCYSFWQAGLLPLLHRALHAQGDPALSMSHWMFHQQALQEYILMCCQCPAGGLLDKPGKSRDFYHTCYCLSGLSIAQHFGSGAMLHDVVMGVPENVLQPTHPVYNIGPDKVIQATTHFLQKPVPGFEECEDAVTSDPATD
Description: Inhibition of farnesyl protein transferase (transfer of [3H]farnesyl to Ras-CVLS). It counts as biochemical. Particulars: for IC50: read-out: FPT IC50. On the procedure: 1. In vitro enzyme assays: Inhibition of farnesyl protein transferase and geranylgeranyl protein transferase.
Human farnesyl protein transferase was also expressed in E. coli, using cDNA clones encoding both the α and β subunits. […] Human farnesyl protein transferase was partially-purified from the soluble protein fraction of E. coli as described above. […] Two forms of val^12-Ha-Ras protein were prepared as substrates for these enzymes, differing in their carboxy terminal sequence. One form terminated in cysteine-valine-leucine-serine (Ras-CVLS) the other in cystein-valine-leucine-leucine (Ras-CVLL). Ras-CVLS is a substrate for the farnesyl protein transferase while Ras-CVLL is a substrate for geranylgeranyl protein transferase I. The cDNAs encoding these proteins were constructed so that the proteins contain an amino-terminal extension of 6 histidine residues. Both proteins were expressed in Escherichia coli and purified using metal chelate affinity chromatography. The radiolabelled isoprenyl pyrophosphate substrates, [^3H]farnesyl pyrophosphate and [3H]geranylgeranyl pyrophosphate, were purchased from DuPont/New England Nuclear.
The reaction was allowed to proceed for 30 minutes at room temperature and then stopped with 0.5 ml of 4% sodium dodecyl sulfate (SDS) followed by 0.5 ml of cold 30% trichloracetic acid (TCA). Samples were allowed to sit on ice for 45 minutes and precipitated Ras protein was then collected on GF/C filter paper mats using a Brandel cell harvester. […] Percent inhibition was calculated relative to the DMSO vehicle control.

[1] abbreviates: Ras-CVLS farnesylation, partially purified rat brain FPT.

Turning to `O=C(Nc1cccnc1)N1CCN([C@@H]2c3ccc(Cl)cc3CCc3cccnc32)CC1` [224 (6.10)], under setting [1], the IC50 is 3.2 µM.
On to `CN1CCC(CC(=O)N2CCN(C3c4ccc(Cl)cc4CCc4cc(Br)cnc43)CC2)CC1` (centres unmarked) [425-O (5.126)], for which, under “enzyme inhibition”, the IC50 was 0.17 µM and 0.14 µM and 0.122 µM and 0.118 µM and 0.178 µM.
Regarding `O=C(Cc1ccncc1)N1CCC(=C2c3ccncc3CCc3cc(Cl)ccc32)CC1` [Example 5.39], the IC50 under setting [1] came to 2.3 µM.
Regarding `C#CC(=O)N1CCC(=C2c3ccc(Cl)cc3CCc3cccnc32)CC1` [Example 9], the IC50 under setting [1] was 4 µM.
In the case of `COC(=O)c1ccc(C(=O)N2CCC(=C3c4ccc(Cl)cc4CCc4cccnc43)CC2)cc1` [Example 13], the IC50 under setting [1] was determined as 4.5 µM.
For the compound `O=C(c1ccnnc1)N1CCC(=C2c3ccc(Cl)cc3CCc3cccnc32)CC1` [Example 14], the IC50 under setting [1] is 4.6 µM.
Consider `O=C(c1cc[nH]c1)N1CCC(=C2c3ccc(Cl)cc3CCc3cccnc32)CC1` [Example 16], for which, under setting [1], the IC50 is 4.8 µM.
Regarding `CN(C)c1ccc(C(=O)N2CCC(=C3c4ccc(Cl)cc4CCc4cccnc43)CC2)cc1` [Example 17], the IC50 under setting [1] was 4.8 µM.
Regarding `O=C(c1cn[nH]c1)N1CCC(=C2c3ccc(Cl)cc3CCc3cccnc32)CC1` [Example 18], the IC50 under setting [1] stood at 4.9 µM.
Turning to `O=C(C1CCCO1)N1CCC(=C2c3ccc(Cl)cc3CCc3cccnc32)CC1` (centres unmarked) [Example 19A], the IC50 under setting [1] was determined as 5.1 µM.
Still for that read-out and setting: the value for `Cc1ccc2c(O)c(C(=O)N3CCC(=C4c5ccc(Cl)cc5CCc5cccnc54)CC3)cnc2n1` [Example 20] was 5.2 µM; that for `Nc1ccc(C(=O)N2CCC(=C3c4ccc(Cl)cc4CCc4cccnc43)CC2)cc1` [Example 21] was 5.9 µM.
On to `COc1cc(C(=O)N2CCC(=C3c4ccc(Cl)cc4CCc4cccnc43)CC2)cc(OC)c1O` [Example 24], for which the half-maximal inhibitory concentration (IC50) under setting [1] is 6.2 µM.
On the same count and under the same terms, the value for `O=C(c1cc[nH]c(=O)c1)N1CCC(=C2c3ccc(Cl)cc3CCc3cccnc32)CC1` [Example 25] was 6.25 µM.
Same read-out and setting: in the case of `O=C(c1cccnc1)N1CCC(=C2c3ccc(Cl)cc3CCc3cccnc32)CC1` [Example 26] it was 6.3 µM; in that of `O=C(c1cnccn1)N1CCC(=C2c3ccc(Cl)cc3CCc3cccnc32)CC1` [Example 27], 7.3 µM.
For `O=C(c1ccnc(Cl)c1)N1CCC(=C2c3ccc(Cl)cc3CCc3cccnc32)CC1` [Example 28], the IC50 under setting [1] came to 7.3 µM.
Turning to `O=C(c1ccccn1)N1CCC(=C2c3ccc(Cl)cc3CCc3cccnc32)CC1` [Example 29], the IC50 under setting [1] turned out to be 8 µM.
For the compound `O=C(c1c[nH]c2ccccc12)N1CCC(=C2c3ccc(Cl)cc3CCc3cccnc32)CC1` [Example 30], under setting [1], the IC50 was 5.7 µM.
Still for that read-out and setting: the value for `O=C(c1cc([N+](=O)[O-])c(O)c([N+](=O)[O-])c1)N1CCC(=C2c3ccc(Cl)cc3CCc3cccnc32)CC1` [Example 31] was 8.3 µM; that for `O=C(c1cncc2ccccc12)N1CCC(=C2c3ccc(Cl)cc3CCc3cccnc32)CC1` [Example 32] was 8.7 µM; that for `O=C(c1cnc(O)nc1O)N1CCC(=C2c3ccc(Cl)cc3CCc3cccnc32)CC1` [Example 33] was 8.7 µM.
As for `O=C(c1cc[n+]([O-])c2ccccc12)N1CCC(=C2c3ccc(Cl)cc3CCc3cccnc32)CC1` [Example 34], the IC50 under setting [1] is 9.8 µM.
On to `Cn1cc(C(=O)N2CCC(=C3c4ccc(Cl)cc4CCc4cccnc43)CC2)ccc1=O` [Example 36], for which the IC50 under setting [1] is 11.2 µM.
Take `Cc1cc(C(=O)N2CCC(=C3c4ccc(Cl)cc4CCc4cccnc43)CC2)cc(Cl)[n+]1[O-]` [Example 37]: under setting [1], the IC50 amounted to 11.4 µM.
For the compound `O=C(c1ccnc2ccccc12)N1CCC(=C2c3ccc(Cl)cc3CCc3cccnc32)CC1` [Example 38], the IC50 under setting [1] is 12.1 µM.
On to `O=C1CCC(C(=O)N2CCC(=C3c4ccc(Cl)cc4CCc4cccnc43)CC2)O1` (centres unmarked) [Example 39], for which the IC50 under setting [1] worked out at 13.4 µM.
Turning to `O=C(c1cc2ccccc2[nH]1)N1CCC(=C2c3ccc(Cl)cc3CCc3cccnc32)CC1` [Example 40], the FPT inhibition (at 13 μM) came to 44% at 13 μM.
As to `O=C(c1ccco1)N1CCC(=C2c3ccc(Cl)cc3CCc3cccnc32)CC1` [Example 52], under setting [1], the IC50 amounted to 4.9 µM.
Same read-out and setting: the value for `O=C(c1ccccc1)N1CCC(=C2c3ccc(Cl)cc3CCc3cccnc32)CC1` [Example 54] was 5.3 µM; that for `O=C(c1ccoc1)N1CCC(=C2c3ccc(Cl)cc3CCc3cccnc32)CC1` [Example 55] was 5.9 µM; that for `CCOC(=O)C(=O)N1CCC(=C2c3ccc(Cl)cc3CCc3cccnc32)CC1` [Example 56] was 7.9 µM.
For `CC(C)(C)CC(=O)N1CCC(=C2c3ccc(Cl)cc3CCc3cccnc32)CC1` [Example 57], the IC50 under setting [1] came out at 9.8 µM.
Regarding `COCC(=O)N1CCC(=C2c3ccc(Cl)cc3CCc3cccnc32)CC1` [Example 58], the IC50 under setting [1] worked out at 14.4 µM.
For `CC(=O)N1CCC(=C2c3ccc(Cl)cc3CCc3cccnc32)CC1` [Example 59], the IC50 under setting [1] worked out at 26.9 µM.
`CC(=O)N1CCC(=C2c3ccc(Cl)cc3CCc3cc(Cl)cnc32)CC1` [Example 62]: under setting [1], the IC50 came to 7.8 µM.
For the compound `CC(=O)N1CCC(=C2c3ccc(Cl)cc3CCc3ccc(C)nc32)CC1` [Example 63], the FPT inhibition (at 16.4 μM) was found to be 1% at 16.4 μM.
Take `CC(=O)N1CCC(=C2c3ccc(Cl)cc3CCc3cc(C)cnc32)CC1` [Example 64]: the IC50 under setting [1] is 10.6 µM.
For `CC(=O)N1CCC(=C2c3ccc(Cl)cc3CCc3cc(C(C)(C)C)cnc32)CC1` [Example 66], under “at 50 μM”, the FPT inhibition was 22% at 50 μM.
For the compound `CC(=O)N1CCC(=C2c3cc4ccccc4cc3CCc3cccnc32)CC1` [Example 71A], the IC50 under setting [1] was 17.6 µM.
In turn, `CC(=O)N1CCC(=C2c3cc(Cl)c(Cl)cc3CCc3cccnc32)CC1` [Example 71C] came in with an FPT inhibition (at 15.5 μM) of 38% at 15.5 μM.
On to `CC(=O)N1CCC(=C2c3ccc(Cl)cc3CCc3ccc[n+]([O-])c32)CC1` [Example 73], for which the FPT inhibition (at 15.6 μM) is given as 27% at 15.6 μM.
Compound `COc1cc[n+]([O-])c2c1CCc1cc(Cl)ccc1C2=C1CCN(C(C)=O)CC1` [Example 74A] displayed an FPT inhibition (at 14.2 μM) of 25% at 14.2 μM.
Take `CC(=O)N1CCC(=C2c3ccc(Cl)cc3CCc3cc(Br)c[n+]([O-])c32)CC1` [Example 74B]: under setting [1], the IC50 is 4 µM.
For the compound `CC(=O)N1CCC(=C2c3ccc(Cl)cc3CCc3c(Cl)cc[n+]([O-])c32)CC1` [Example 74C], the IC50 under setting [1] is 11.6 µM.
On the same count and under the same terms, in the case of `CNS(=O)(=O)c1ccc(C(=O)N2CCC(=C3c4ccc(Cl)cc4CCc4cccnc43)CC2)cc1` [Example 92] it was 3.9 µM; in that of `O=C(/C=C/c1ccncc1)N1CCC(=C2c3ccc(Cl)cc3CCc3cccnc32)CC1` [Example 99], 4.4 µM; in that of `O=C(C1CCNCC1)N1CCC(=C2c3ccc(Cl)cc3CCc3cccnc32)CC1` [Example 100], 4.5 µM.
As for `O=C(N[C@@H]1C[C@H]1c1ccccc1)N1CCC(=C2c3ccc(Cl)cc3CCc3cccnc32)CC1` [Example 101], the half-inhibitory concentration (IC50) under setting [1] turned out to be 4.6 µM.
`O=C(Cc1cccs1)N1CCC(=C2c3ccc(Cl)cc3CCc3cccnc32)CC1` [Example 102]: under setting [1], the IC50 was determined as 4.6 µM.
For the compound `O=C(C1CCSCC1)N1CCC(=C2c3ccc(Cl)cc3CCc3cccnc32)CC1` [Example 103], the IC50 under setting [1] came out at 4.6 µM.
As to `O=C(C1CCC(=NO)CC1)N1CCC(=C2c3ccc(Cl)cc3CCc3cccnc32)CC1` (centres unmarked) [Example 104], under setting [1], the IC50 worked out at 4.7 µM.
In the case of `NC1CCC(C(=O)N2CCC(=C3c4ccc(Cl)cc4CCc4cccnc43)CC2)CC1` (centres unmarked) [Example 105], under setting [1], the IC50 came out at 5 µM.
As for `O=C(O)c1ccc(C(=O)N2CCC(=C3c4ccc(Cl)cc4CCc4cccnc43)CC2)cc1` [Example 106], the IC50 under setting [1] is 5.3 µM.
For `CSc1ccc(C(=O)N2CCC(=C3c4ccc(Cl)cc4CCc4cccnc43)CC2)cc1` [Example 108], the IC50 under setting [1] was 6.9 µM.
For the compound `CNc1ccc(C(=O)N2CCC(=C3c4ccc(Cl)cc4CCc4cccnc43)CC2)cn1` [Example 109], the IC50 under setting [1] was found to be 7.2 µM.
Take `CN(C)c1cc(C(=O)N2CCC(=C3c4ccc(Cl)cc4CCc4cccnc43)CC2)ccn1` [Example 110]: the half-inhibitory concentration (IC50) under setting [1] worked out at 8.3 µM.
On to `O=C(c1ccc(NS(=O)(=O)C(F)(F)F)cc1)N1CCC(=C2c3ccc(Cl)cc3CCc3cccnc32)CC1` [Example 111], for which the IC50 under setting [1] was 8.5 µM.
Turning to `CC(C)(C)OC(=O)NCC(=O)N1CCC(=C2c3ccc(Cl)cc3CCc3cccnc32)CC1` [Example 112], the IC50 under setting [1] was determined as 8.8 µM.
For `CC(=O)N(C)CCC(=O)N1CCC(=C2c3ccc(Cl)cc3CCc3cccnc32)CC1` [Example 113], the IC50 under setting [1] turned out to be 10.3 µM.
In the case of `O=C(c1cccnc1O)N1CCC(=C2c3ccc(Cl)cc3CCc3cccnc32)CC1` [Example 114], under setting [1], the 50% inhibitory concentration (IC50) was 11.1 µM.
On to `C=CC(=O)N1CCC(=C2c3ccc(Cl)cc3CCc3cccnc32)CC1` [Example 115], for which the IC50 under setting [1] stood at 14.2 µM.
The same measure, in the same setting: in the case of `CC(O)C(=O)N1CCC(=C2c3ccc(Cl)cc3CCc3cccnc32)CC1` (centres unmarked) [Example 116] it was 15.7 µM; in that of `NCC(=O)N1CCC(=C2c3ccc(Cl)cc3CCc3cccnc32)CC1` [Example 118], 22.3 µM.
As to `COc1cc(C(=O)N2CCC(=C3c4ccc(Cl)cc4CCc4cccnc43)CC2)cc(OC)c1OC` [Example 119], the FPT inhibition (at 11 μM) turned out to be 41% at 11 μM.
